In series [1] the target is Acetylcholinesterase (Electrophorus electricus) (UniProt O42275). In words: (§1) Inhibition of electric eel AChE using acetylthiocholine iodide as substrate measured over 5 mins by Ellman's method. In general terms: DTNB colorimetry detects thiols as they appear.
Series [2] deals with T1, Acetylcholinesterase (Electrophorus electricus, UniProt O42275). The description is as §1.
In series [3] the target is T2, Acetylcholinesterase (Homo sapiens, UniProt P22303). In words: Inhibition of human AChE using acetylthiocholine iodide as substrate measured over 5 mins by Ellman's method.
T2 sequence (P22303 whole entry): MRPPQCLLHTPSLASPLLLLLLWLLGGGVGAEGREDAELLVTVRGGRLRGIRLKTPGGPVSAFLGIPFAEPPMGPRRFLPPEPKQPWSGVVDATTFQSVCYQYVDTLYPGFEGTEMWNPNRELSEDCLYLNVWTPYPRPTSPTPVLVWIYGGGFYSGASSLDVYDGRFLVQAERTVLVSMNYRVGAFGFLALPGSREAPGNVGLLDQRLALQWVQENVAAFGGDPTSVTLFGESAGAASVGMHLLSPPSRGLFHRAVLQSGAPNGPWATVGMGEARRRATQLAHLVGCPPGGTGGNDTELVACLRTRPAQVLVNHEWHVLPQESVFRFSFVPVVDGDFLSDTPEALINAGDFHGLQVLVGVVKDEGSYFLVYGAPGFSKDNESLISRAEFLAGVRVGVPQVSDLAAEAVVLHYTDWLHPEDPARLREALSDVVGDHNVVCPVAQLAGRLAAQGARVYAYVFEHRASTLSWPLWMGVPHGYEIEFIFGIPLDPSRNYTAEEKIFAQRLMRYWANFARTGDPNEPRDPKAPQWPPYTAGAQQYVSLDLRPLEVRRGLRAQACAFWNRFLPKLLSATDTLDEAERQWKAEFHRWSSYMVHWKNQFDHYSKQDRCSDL
Series [4] deals with Cholinesterase (Equus caballus) (UniProt P81908). The series can be described thus: (§2) Reversible competitive inhibition of equine serum BChE using acetylthiocholine iodide as substrate measured over 5 mins by Ellman's method.
Chain of Cholinesterase (Equus caballus) (P81908 whole entry): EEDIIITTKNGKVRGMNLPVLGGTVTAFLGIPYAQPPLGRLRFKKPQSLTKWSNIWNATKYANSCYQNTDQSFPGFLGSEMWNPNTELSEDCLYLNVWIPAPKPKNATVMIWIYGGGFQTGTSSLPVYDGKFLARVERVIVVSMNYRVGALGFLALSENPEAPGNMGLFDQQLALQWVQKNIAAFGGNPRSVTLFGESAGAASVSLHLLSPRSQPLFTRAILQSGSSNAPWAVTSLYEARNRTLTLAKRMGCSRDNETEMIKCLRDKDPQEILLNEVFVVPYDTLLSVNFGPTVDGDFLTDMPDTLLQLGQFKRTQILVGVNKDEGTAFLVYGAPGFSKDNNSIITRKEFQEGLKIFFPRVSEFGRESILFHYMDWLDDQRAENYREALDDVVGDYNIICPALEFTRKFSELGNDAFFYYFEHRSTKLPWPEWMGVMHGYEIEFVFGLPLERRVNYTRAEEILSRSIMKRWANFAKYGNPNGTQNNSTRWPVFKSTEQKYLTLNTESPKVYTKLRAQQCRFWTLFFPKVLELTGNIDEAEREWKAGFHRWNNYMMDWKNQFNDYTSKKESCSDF
For series [5], the target named is T3, Cholinesterase (Equus caballus, UniProt P81908). The series is described as §2.
T3 sequence (P81908 whole entry): as above
Series [6] concerns the target T1, Acetylcholinesterase. In words: Reversible competitive inhibition of electric eel AChE using acetylthiocholine iodide as substrate measured over 5 mins by Dixon plot analysis.
The target in series [7] is T2, Acetylcholinesterase. In words: Reversible competitive inhibition of human AChE using acetylthiocholine iodide as substrate measured over 5 mins by Dixon plot analysis.
In series [8] the target is T3, Cholinesterase. In words: Inhibition of equine serum BChE using acetylthiocholine iodide as substrate measured over 5 mins by Dixon plot analysis.
For series [9], the target named is Acetylcholinesterase (Electrophorus electricus) (UniProt O42275). The series can be described thus: Inhibition of electric eel AChE using acetylthiocholine iodide as substrate at 8.43 uM measured over 5 mins by Ellman's method relative to control.
The nature of series [10]: Toxicity in Balb/c mouse hemidiaphragm assessed as effect on directly evoked muscle twitch amplitudes at 8.43 uM after 60 mins. The conditions noted are these: 1 h. It is filed as tissue-based, Diaphragm.
Series [11] can be described thus: Toxicity in Balb/c mouse hemidiaphragm assessed as effect on indirectly evoked muscle twitch amplitudes at 8.43 uM after 60 mins. It is filed as tissue-based, Diaphragm. The conditions noted are these: 1 h.
The nature of series [12]: Toxicity in Balb/c mouse hemidiaphragm assessed as effect on amplitude of endplate potentials after 30 to 60 mins mins in presence of conotoxin GIIIB. It is filed as tissue-based, Diaphragm.
Series [13] can be described thus: Toxicity in Balb/c mouse hemidiaphragm assessed as effect on endplate potentials half decay after 30 to 60 mins mins in presence of conotoxin GIIIB. It is filed as tissue-based, Diaphragm.
A short description of series [14]: Toxicity in Balb/c mouse hemidiaphragm assessed as effect on amplitude of directly evoked tetanic muscle contractions at 8.43 uM after 60 mins. The conditions noted are these: 1 h. It is filed as tissue-based, Diaphragm.
Series [15] can be described thus: Toxicity in Balb/c mouse hemidiaphragm assessed as effect on amplitude of indirectly evoked tetanic muscle contractions at 8.43 uM after 60 mins. It is filed as tissue-based, Diaphragm. The conditions noted are these: 1 h.
Series [16] deals with Cholinesterase (Equus caballus) (UniProt P81908). The conditions noted are these: 1 mM.
Description: Inhibition of equine serum BChE at 1 mM

Chain of Acetylcholinesterase (Electrophorus electricus) (O42275 24-633 limits assumed): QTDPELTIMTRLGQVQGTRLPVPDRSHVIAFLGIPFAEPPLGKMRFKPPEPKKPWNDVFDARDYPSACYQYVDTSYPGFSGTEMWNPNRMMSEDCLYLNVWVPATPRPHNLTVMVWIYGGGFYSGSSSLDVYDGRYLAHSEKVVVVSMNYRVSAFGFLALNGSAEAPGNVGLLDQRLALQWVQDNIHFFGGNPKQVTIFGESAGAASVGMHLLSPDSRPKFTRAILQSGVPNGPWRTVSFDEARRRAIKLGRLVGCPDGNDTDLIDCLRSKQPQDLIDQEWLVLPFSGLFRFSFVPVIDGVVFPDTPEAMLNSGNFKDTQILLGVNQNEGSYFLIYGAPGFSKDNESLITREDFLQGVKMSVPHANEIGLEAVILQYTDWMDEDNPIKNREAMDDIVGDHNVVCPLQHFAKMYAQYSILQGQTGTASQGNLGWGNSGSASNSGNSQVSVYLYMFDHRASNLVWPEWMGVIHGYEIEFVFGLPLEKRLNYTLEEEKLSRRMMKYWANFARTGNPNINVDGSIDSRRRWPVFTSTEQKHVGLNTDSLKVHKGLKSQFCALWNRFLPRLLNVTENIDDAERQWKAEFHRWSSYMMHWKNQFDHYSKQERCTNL
T1 sequence (O42275 whole entry): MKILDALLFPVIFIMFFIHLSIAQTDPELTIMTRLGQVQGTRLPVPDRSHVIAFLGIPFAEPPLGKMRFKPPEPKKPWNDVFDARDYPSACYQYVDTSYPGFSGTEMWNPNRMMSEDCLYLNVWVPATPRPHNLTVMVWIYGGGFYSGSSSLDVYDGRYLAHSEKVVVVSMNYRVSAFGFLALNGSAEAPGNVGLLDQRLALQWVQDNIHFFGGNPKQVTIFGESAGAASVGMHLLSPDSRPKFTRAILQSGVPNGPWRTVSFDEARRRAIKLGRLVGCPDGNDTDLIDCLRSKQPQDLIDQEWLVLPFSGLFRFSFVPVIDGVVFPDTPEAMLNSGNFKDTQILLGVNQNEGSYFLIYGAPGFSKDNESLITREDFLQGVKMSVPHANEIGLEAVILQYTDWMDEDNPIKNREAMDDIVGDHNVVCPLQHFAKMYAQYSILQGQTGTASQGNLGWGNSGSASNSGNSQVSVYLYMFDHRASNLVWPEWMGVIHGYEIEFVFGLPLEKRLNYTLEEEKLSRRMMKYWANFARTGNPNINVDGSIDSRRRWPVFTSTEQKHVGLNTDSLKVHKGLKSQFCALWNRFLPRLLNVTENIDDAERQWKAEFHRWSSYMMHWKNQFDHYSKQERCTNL

Usually inhibition stands for the relative decrease from the control value, in per cent. A word on the IC50: it is the concentration needed to halve the response being measured. Low values mean higher potency, high ones lower potency. By Ki is commonly meant the equilibrium dissociation constant of an inhibitor or competing ligand from its target. A higher Ki goes with a looser hold on the target. Regarding `O=C1C2=C(C3=NCCc4c[nH]c1c43)C1(C=CN2)C=C(Br)C(O)C(Br)=C1` (stereo not given), the inhibition entry (in series [1]; on Acetylcholinesterase [3]; in series [4]) was “Dose-dependent effect” in each case. For the same compound, the IC50 against Acetylcholinesterase [2] is 14.5 µM; against Acetylcholinesterase [3], 152 µM; on Cholinesterase [5] it was 15.8 µM. For the same compound, the Ki at Acetylcholinesterase [6] was 3.5 µM; on Acetylcholinesterase [7], 98 µM; at Cholinesterase [8], 17.5 µM.

For `O=C(O)C(F)(F)F.O=C1CC[C@@]2(C=CNC3=C2C2=NCCc4c[nH]c(c42)C3=O)C=C1Br`, the inhibition entry was “Dose-dependent effect” in [1], “Dose-dependent effect” on Acetylcholinesterase [3], “Dose-dependent effect” in series [4] and 80% in series [9]. For the same compound, the IC50 was found to be 1.3 µM against Acetylcholinesterase [2], 116 µM on Acetylcholinesterase [3] and 7 µM on Cholinesterase [5]. Also, the Ki was 1.6 µM at Acetylcholinesterase [6], 56.2 µM at Acetylcholinesterase [7] and 5 µM at Cholinesterase [8]. Also, the Activity result in series [10], in series [11], in series [12], in series [13], in series [14] and in [15] was “Non-Toxic” each time.

For `O=C1C=C2S[C@H]3C[C@]2(C=C1Br)C1=C(N3)C(=O)c2[nH]cc3c2C1=NCC3` [DISCORHABDIN B], the inhibition result (in series [1]; on Acetylcholinesterase [3]; in series [4]) was “Dose-dependent effect” in each case. For the same compound, the IC50 on Acetylcholinesterase [2] was 5.7 µM; on Acetylcholinesterase [3], 49.4 µM; on Cholinesterase [5] it was 137 µM. The Ki on Acetylcholinesterase [6] amounted to 1.9 µM; on Acetylcholinesterase [7], 22.8 µM; on Cholinesterase [8] it was 76 µM.

For `O=C1C2=C3C4=[N+](CCc5c[nH]c1c54)[C@@H]1C(=O)C=C4S[C@@H](C[C@@]43[C@H]1O)N2` [DISCORHABDIN L], the inhibition result (in [1]; on Acetylcholinesterase [3]; in [4]) was “Dose-dependent effect” in each case. The IC50 came out at 25.7 µM at Acetylcholinesterase [2], 158 µM against Acetylcholinesterase [3] and 531 µM on Cholinesterase [5]. This compound gave a Ki at Acetylcholinesterase [6] of 15 µM.

Take `CNC(=O)Oc1ccc2c(c1)[C@]1(C)CCN[C@@H]1N2`: the IC50 against Acetylcholinesterase [2] was 3 µM; against Acetylcholinesterase [3], 14.5 µM; at Cholinesterase [5], 28.5 µM.

In the case of `COc1ccc2c3c1O[C@H]1C[C@@H](O)C=C[C@@]31CCN(C)C2`, the inhibition in series [16] turned out to be 80.3%.

For the origin of these results see ChEMBL document CHEMBL4138094, “Discorhabdin alkaloids from Antarctic Latrunculia spp. sponges as a new class of cholinesterase inhibitors” (Eur J Med Chem, 2017).
